≈ marks a conversion by molar mass, not a printed value. Read-outs that look alike come from different tables or passages of the source. Some results are limits rather than exact numbers.

Assay type in all cases: cell-based
In one series the test system is HIV-1 strain RF. Nature of the series: Formazan (MTT) assay on MT-4 cells, anti-HIV-1 antiviral activity. As to conditions: Human immunodeficiency virus 1, MT4, 168 h, MT-4 cells infected with HIV-1 strain RF, 7 days, read-out: IC50 (50% anti-viral dose, ID 50%). As for the experimental part:
Formazan Assay on MT-4 and 3TC™-Resistant Cell Lines
(§1) Anti-HIV-1 antiviral activity was determined in MT-4 calls and MT-4 cells that have been made resistant to 3TC™. A suspension of cells (approximately 10^6 cells/ml) in RPMI 1640 growth medium was infected with HIV-1 strain RF at a M.O.I. of 10^−3 infectious units/cell. An uninfected cell suspension was prepared in parallel to evaluate drug-induced cytotoxicity. The two suspensions were incubated for 90 minutes at room temperature. Test compounds were serially diluted in 10-fold decrements from 100 μg/ml to 0.01 μg/ml (final concentrations in two 96 well microtitre plates. 20 μl of infected cell suspension were inoculated into each well of one of the plates (anti-viral), while 20 μl of uninfected cell suspension were added to each well of the second plate (cytotoxicity). The plates were then incubated for 7 days at 37° C. After incubation, 10 μl of 3-(4,5-dimethylthiazol-2-yl)-2,5-diphenyltetrazolium bromide (MTT) at 20 mg/ml was added to all wells and the plates incubated for a further 90 minutes at 37° C.
150 μl of 10% (v/v) alcoholic Triton X-100 was then added and the cells resuspended. After 15 minutes at room temperature, the plates were analyzed in a Multiskan MC reader at 405 nm. Conversion of yellow MMT to its formazan derivative is maximum in uninfected cells, and absent in untreated infected cells. The optical density values for the cytotoxicity controls and the antiviral test wells were graphically plotted and the dose of compounds required to inhibit the conversion of MMT to 50% of the untreated uninfected controls was calculated. In this way, both the 50% cytotoxic dose (CD 50%) and the 50% anti-viral dose (ID 50%) can be calculated.

The test system of the next series is HIV-1 (HTLV-IIIB). The series can be described thus: CBM assay, IC50 from RT levels in culture fluids. The settings on record: Human immunodeficiency virus 1. On the procedure: Assays on cord blood mononuclear cells were done substantially as described in Gu et al., J. Virol. (1992), 66:7128-7135.
(§2) In short, viruses (HTLV-IIIB) that had initially been grown on MT-4 cells were passaged onto phytohemaglutinin-prestimulated cord blood mononuclear cells (CBM). For subsequent analysis, samples of CBM (5×10^5 cells per mL) were pretreated with various concentrations of the different compounds for 4 h and were then inoculated with CBL-grown HIV-1 at a multiplicity of infection of 1.0 in the concentration of the compound used for the pretreatment. Fresh medium, including the appropriate concentration of the compound was added three times weekly, and fresh phytohemaglutinin-prestimulated CBM (5×10^5 cells per mL) were added at 2-day intervals. The calculation of IC50 was determined on the basis of RT levels in culture fluids as described in Gao et al., (1992), J. Virol. 66: 12-19.

Another series has as its system HIV-1 IIIB. The series can be described thus: IC50 in CBMCs with HIV-1 isolate IIIB. On the procedure: as §2
(§3) Determination of IC50 (μM) in Different Mutated Isolates of HIV-1 in the Presence of Different Antiviral Compounds
(§4) The procedure is similar to the procedure used in the CBM assay, with the exception that constructed virus and construted mutated virus were used.

Another series relates to HIV-1 HXB2D. The series can be described thus: IC50 in CBMCs with constructed virus HXB2D. On the procedure: as §2, §3, §4
(§5) The constructed virus HXB2D-65 correspond to the ddC resistance mutation and the constructed virus HXB2D-184 correspond to the 3TC™ and FTC resistance mutation.

Series [1] relates to HIV-1 HXB2D-65 K→R (ddC resistance mutation). Nature of the series: IC50 in CBMCs with constructed mutated virus HXB2D-65. As for the experimental part:
as §2, §3, §4, §5

Series [2] has as its system HIV-1 HXB2D-184 M→V (3TC™ and FTC resistance mutation). The series can be described thus: IC50 in CBMCs with constructed mutated virus HXB2D-184. As for the experimental part:
as §2, §3, §4, §5

In the next series the test system is HTLV-IIIb. Nature of the series: HIV-1 acutely infected cell lines, p24 antigen levels. As to conditions: p24 antigen at day 6; for ID50 CEM: CEM cells infected with HTLV-IIIb; for ID50 H9: H9 cells infected with HTLV-IIIb; for ID50 Jurkat: Jurkat cells infected with HTLV-IIIb; for ID50 MT-4: MT-4 cells infected with HTLV-IIIb; for ID50 U937: U937 cells infected with HTLV-IIIb. On the procedure:
Determination of IC50 ([…]) in HIV-1 Acutely Infected Cell Lines in the Presence of Differet Antiviral Compounds
Various cell lines were infected with HTLV-IIIb (TCID50=200) and then cultured with various concentrations of drug. IC50 was determined by measuring p24 antigen levels in the supernatant of cultures at day 6 of infection.

In a further series the test system is CBMCs. The series can be described thus: Cell culture inhibitory dose (CCID50) in CBMCs. As to conditions: cell counting, trypan blue exclusion, 7 days post drug treatment. As for the experimental part:
(§6) Evaluation of Cell Culture Inhibitory Dose (CCID50)
(§7) Cell growth was determined by cell counting and viability by trypan blue exclusion 7 days post drug treatment. CCID50 is expressed as the drug concentration which inhibits 50% of cell growth.

The subject of a further series is MT-4. Nature of the series: Cell culture inhibitory dose (CCID50) in MT-4. As to conditions: cell counting, trypan blue exclusion, 7 days post drug treatment. As for the experimental part: as §6, §7
The test system of the next series is U937. Nature of the series: Cell culture inhibitory dose (CCID50) in U937. The settings on record: cell counting, trypan blue exclusion, 7 days post drug treatment. On the procedure:
as §6, §7

The next series concerns Jurkat. The series can be described thus: Cell culture inhibitory dose (CCID50) in Jurkat. As to conditions: cell counting, trypan blue exclusion, 7 days post drug treatment. As for the experimental part:
as §6, §7

A further series concerns H9. The series can be described thus: Cell culture inhibitory dose (CCID50) in H9. As to conditions: cell counting, trypan blue exclusion, 7 days post drug treatment. On the procedure:
as §6, §7

For a further series, the system named is CEM. The series can be described thus: Cell culture inhibitory dose (CCID50) in CEM. The settings on record: cell counting, trypan blue exclusion, 7 days post drug treatment. On the procedure: as §6, §7
The test system of another series is MT-4 cells. Nature of the series: Formazan (MTT) assay, drug-induced cytotoxicity in uninfected MT-4 cells. As to conditions: human, 7 days. As for the experimental part:
as §1, with “A suspension of cells (approximately 10^6 cells/ml) in RPMI 1640 growth medium was infected with HIV-1 strain RF at a M.O.I. of 10^−3 infectious units/cell.” left out
150 μl of 10% (v/v) alcoholic Triton X-100 was then added and the cells resuspended. After 15 minutes at room temperature, the plates were analyzed in a Multiskan MC reader at 405 nm. […] The optical density values for the cytotoxicity controls and the antiviral test wells were graphically plotted and the dose of compounds required to inhibit the conversion of MMT to 50% of the untreated uninfected controls was calculated.

The test system of series [3] is cord blood mononuclear cells (CBM). Nature of the series: Cytotoxicity (CD50) reported with CBM assay. As for the experimental part: Assays on cord blood mononuclear cells were done substantially as described in Gu et al., J. Virol.
as §2, with “The calculation of IC50 was determined on the basis of RT levels in culture fluids as described in Gao et al., (1992), J. Virol.” left out

A further series relates to human hepatitis B virus. The series can be described thus: Inhibition of human hepatitis B virus in 2.2.15 cells, extracellular HBV DNA. The settings on record: 10 day treatment. On the procedure: Inhibition of Human Hepatitis B Virus.
(§8) The method used for this test is described in detail in Korba et al., Antiviral research 15, 217-228 (1992) which is shortly described as follows: Hep G2 cells transfected with human hepatitis B virus genomic DNA (2.2.15 cells) were grown and maintained in RPMI-1640 culture medium containing %5 foetal bovine serum, 2 mM glutamine and 50 μg/ml gentamicin sulphate, and checked routinely for G418 resistance. Cultures of 2.2.15 cells were grown to confluence in 24 well tissue culture plates and maintained for 2 to 3 days in that condition prior to drug treatment.
Drugs were dissolved in sterile water or sterile 50% DMSO in water at concentrations 100-fold higher than the higher test concentration. These solutions were diluted as needed in culture medium.
The culture medium on the confluent cells was changed 24 hours prior to exposure to test compounds. During the 10 day treatment, the culture medium was changed daily. After 10 days of the treatment, the culture medium was collected and frozen at −70° C. for HBV DNA analysis. […]
A purified 3.2 kb EcoR1 HBV DNA fragment was labeled with [^32p]dCTP by nick translation and used as a probe to detect HBV DNA on the dot-blot by DNA hybridization. After washing, the hybridized blot was dried and ^32p was quantified using an Ambis beta scanner.

For series [4], the system named is 2.2.15 cells (Hep G2 cells transfected with human hepatitis B virus genomic DNA). Nature of the series: Cytotoxicity (CD50) reported with HBV assay. As to conditions: HBV table. On the procedure: as §8
[5] abbreviates: Human immunodeficiency virus 1, read-out: IC50 HXB2D.
Setting [6] is: Human immunodeficiency virus 1, read-out: IC50 HXB2D-65 K→R.
Setting [7] is: Human immunodeficiency virus 1, read-out: IC50 HXB2D-184 M→V.

As to `Cc1cn([C@H]2C[C@H](N=[N+]=[N-])[C@@H](CO)O2)c(=O)[nH]c1=O` [AZT, 3′-azido-3′-deoxythymidine, reference compound], the IC50 (in general, the point on the concentration scale where inhibition reaches its midpoint) in the series with HIV-1 strain RF is 0.01 µg/mL (≈ 0.0374 µM); in the series on HIV-1 (HTLV-IIIB), less than 0.002 µg/mL; in the series on HIV-1 IIIB (Human immunodeficiency virus 1), 2 nM; in the series with HIV-1 HXB2D (setting [5]) it was 2 nM; in [1] (setting [6]), 1 nM; in series [2] (setting [7]), 1 nM. In addition, the “ID50 CEM” value with HTLV-IIIb turned out to be 0.01 µg/mL (≈ 0.0374 µM). For the same molecule, the “ID50 H9” value in the series on HTLV-IIIb came out at 0.07 µg/mL (≈ 0.262 µM). For the same molecule, the “ID50 Jurkat” value with HTLV-IIIb turned out to be 0.01 µg/mL (≈ 0.0374 µM). Moreover, the “ID50 MT-4” value in the series with HTLV-IIIb worked out at 0.005 µg/mL (≈ 0.0187 µM). The “ID50 U937” value in the series on HTLV-IIIb was 0.04 µg/mL (≈ 0.15 µM). Also, the “CCID50 CBMCs” value with CBMCs came out at 45 µM. Besides, in the series on MT-4, the “CCID50 MT-4” value was determined as 110 µM. Moreover, in the series on U937, the “CCID50 U937” value came to 110 µM. Besides, in the series on Jurkat, the “CCID50 Jurkat” value is more than 500 µM. The “CCID50 H9” value with H9 is 200 µM. The “CCID50 CEM” value with CEM amounted to 500 µM.

On to `Nc1ccn([C@H]2CO[C@@H](CO)S2)c(=O)n1` [Compound #1, 2R-hydroxymethyl-4R-(cytosin-1′-yl)-1,3-oxathiolane], for which the IC50 in the series on HIV-1 strain RF was 13 µg/mL (≈ 56.7 µM); in the series on HIV-1 (HTLV-IIIB), 0.05 to 1.22 µg/mL (≈ 0.218 to 5.32 µM); with HIV-1 IIIB (Human immunodeficiency virus 1), 220 nM; in the series with HIV-1 HXB2D (setting [5]), 1000 nM; in series [1] (setting [6]), 2500 nM; in series [2] (setting [7]), 530 nM. The “CD50 (50% cytotoxic dose)” value with MT-4 cells was more than 100 µg/mL. Further, the CD50 in series [3] is more than 23 µg/mL. Further, the “ID50 CEM” value in the series with HTLV-IIIb came out at 0.2 µg/mL (≈ 0.872 µM). In the series with HTLV-IIIb, the “ID50 H9” value came to 0.3 µg/mL (≈ 1.31 µM). For the same molecule, the “ID50 Jurkat” value in the series on HTLV-IIIb is 3.0 µg/mL (≈ 13.1 µM). Besides, the “ID50 MT-4” value in the series with HTLV-IIIb worked out at 2.8 µg/mL (≈ 12.2 µM). In addition, the “ID50 U937” value in the series on HTLV-IIIb stood at 0.4 µg/mL (≈ 1.74 µM). Also, in the series with CBMCs, the “CCID50 CBMCs” value is more than 500 µM. The “CCID50 MT-4” value in the series on MT-4 was more than 500 µM. Further, the “CCID50 U937” value in the series on U937 is more than 500 µM. Moreover, in the series with Jurkat, the “CCID50 Jurkat” value came to 450 µM. The “CCID50 H9” value with H9 is more than 500 µM. Also, the “CCID50 CEM” value in the series on CEM was more than 500 µM.

On to `Nc1ccn([C@@H]2CS[C@H](CO)O2)c(=O)n1` [3TC ™, reference compound], for which the IC50 in the series with HIV-1 IIIB came to 10 nM; in the series on HIV-1 HXB2D (CBMCs, constructed virus HXB2D, read-out: IC50 HXB2D) it was 80 nM; in series [1] (CBMCs, ddC resistance mutation, read-out: IC50 HXB2D-65 K→R), 125 nM; in series [2] (CBMCs, 3TC™ and FTC resistance mutation, read-out: IC50 HXB2D-184 M→V) it was 42500 nM.

Regarding `Nc1ccn(C2COC(CO)S2)c(=O)n1` (stereo not drawn) [BCH-270, Cis- and Trans-2-hydroxymethyl-4-(cytosin-1′-yl)-1,3-oxathiolane], the IC50 in the series with HIV-1 strain RF turned out to be 4 µg/mL (≈ 17.4 µM); in the series with HIV-1 (HTLV-IIIB), 0.03 µg/mL (≈ 0.131 µM). The “CD50 (50% cytotoxic dose)” value in the series on MT-4 cells was more than 100 µg/mL. In series [3], this molecule yielded a CD50 of more than 23 µg/mL. For the same molecule, the “ID50 (HBV)” value in the series on human hepatitis B virus came out at 7.5 µg/mL (≈ 32.7 µM). In addition, the “CD50 (HBV)” value in series [4] was more than 10 µg/mL.

(Values after US6369066B1, “Substituted 1,3-oxathiolanes with antiviral properties” (BioChem Pharma, Inc., priority 1990, dated 2002).)
